# Like-named read-outs stand apart in the source and are kept apart here.
# How the values were obtained:
# [1] = tested on: serum retinol-binding protein (RBP); test: Binding to serum retinol-binding protein (RBP): inhibition of [3H]retinol binding; conditions: % of that of retinol
# [2] = tested on: TPA-induced ornithine decarboxylase (ODC); test: Inhibition of TPA-induced ornithine decarboxylase (ODC) in mouse skin; format: in vivo
# From the text: Earlier, several alkyl, alkenyl, or alkynyl retinyl ethers had been assayed for inhibition of TPA-induced ornithine decarboxylase (ODC) in mouse skin and for the suppression of DMBA-initiated and TPA-promoted mouse-skin papillomas (Shealy et al., 1997). In comparison with control groups, these retinyl ethers were ineffective. Only a few representatives of the benzyl ethers were selected for tests in these assays. […] Because of these and the earlier results (Shealy et al., 1997), testing of retinyl benzyl ethers in the ODC and papilloma assays was discontinued.
# [3] = tested on: MNU-induced mammary cancer; test: Short-term (90-day) assay against MNU-induced mammary cancer in rats (Expts. 2 and 3); format: in vivo, rat (female Sprague-Dawley); conditions: 90 days
# Method: Retinoid diet mixtures were stored at 4° C. […] The animals were palpated for mammary tumors 2×/week. […] Also, five rats/group had complete necropsies performed.
# The 2,5-dimethoxybenzyl (3b) and 4-methoxybenzyl (3e) ethers were tested in the same way in a 90-day study. […] The 2,5-dimethybenzyl (3c) and the 2,3-dimethoxybenzyl (3h) ethers, together with RTMBE for comparison, were likewise assayed according to the same methodology. Prior to the beginning of this study, specimens of the retinoid-diet mixtures were placed under the conditions that were employed during the storage and feeding of RTMBE, 3c, and 3h. The specimens were extracted with butanol, and the extracts were analyzed by HPLC. […] Testing of 3c and 3h was discontinued, but the RTMBE study was continued until the duration of the study was 180 days (Table 6). The results were similar to those of Experiment 1 (Table 3). The averages of the number of tumors per rat were reduced by 32-35%; in addition, the averages of the tumor weights per rat was 56-70% lower than the average tumor burden of the control group.
# and was continued until the studies of 3b, 3c, 3e, and 3h were terminated
# 90 days after administration of MNU. The RTMBE experiment was continued
# until 180 days after MNU administration (Table VI).
# kilogram of Teklad diet.
# [4] = Tissue concentrations resulting from gavage of rats with RTMBE; format: in vivo, rat (female Sprague-Dawley); conditions: for concentration at 168 h / concentration at 336 h: rat, po, 14 mg/day by gavage; for concentration at 168 h: 7 days; for concentration at 336 h: 14 days
# Method: To plasma samples (50-200 μl), ten volumes of acetonitrile were added, and the preparations were centrifuged. The supernatants were evaporated to dryness under nitrogen and reconstituted in the mobile phase (see below). Tissues were homogenized in four volumes of water at 0° C., and each homogenate was extracted with acetonitrile (50 mL/g tissue). From this point, handling of plasma and tissue samples was identical. Portions (25-50 μl) of the reconstituted samples were analyzed by reverse-phase HPLC. The chromatographic system was composed of a Beckman solvent delivery module 110B, analogue interface module 406, programable detector module 166, and autosampler 507. The column was a Hypersil ODS, 5-μ, 250×4.6 mm. Elution was accomplished with a solvent of methanol:0.2%acetic acid (93.5:6.5, v/v) with the final solution containing 0.02% triethylamine. The flow rate was 1 mL/min, with detection at 340 nm.
# The concentrations of RTMBE in the serum, mammary gland, and liver of rats, as well as the levels of RP in the liver, were determined after administration of RTMBE by gavage during 14 days (Table 9). […] In order to investigate further the accumulation of retinyl benzyl ethers in mammary tissue, RTMBE, the 2,5-dimethoxybenzyl ether (3b), and the 4-methoxybenzyl (3e) ether were administered intravenously (via a tail vein) at 5 mg/kg to female Sprague-Dawley rats (3 with each retinoid). Acetonitrile extracts of plasma and mammary tissue were analyzed by HPLC. The ratios of mammary tissue-to-plasma concentrations of RTMBE, 3b, and 3e were 183±77, 38±20, and 41±14, respectively, after 24 hr.
# ^a The dose of 14 mg/day by gavage is equivalent to a feeding dose of 2
# [5] = tested on: MNU-induced mammary cancer; test: 180-day study of RTMBE for suppression of MNU-induced mammary carcinogenesis (Expt. 3); format: in vivo, rat (female Sprague-Dawley); conditions: second, confirmatory experiment; 2 mmol/kg of diet, 180 days
# [6] = mammary gland, read-out: RTMBE, Mammary Gland
smiles,measurement,setting,value
"COc1cc(COC/C=C(C)/C=C/C=C(C)/C=C/C2=C(C)CCCC2(C)C)cc(OC)c1OC [Compound 2, Retinyl 3,4,5-Trimethoxybenzyl Ether]","inhibition of [3H] retinol-binding (RBP), relative to that of retinol",[1],70%
same,activity in ODC assay,[2],not active in the ODC assay
same,reduction of the number of tumors per rat,[3]; at 1 mmol/kg,64%
same,"Tumors, % of Control Gp.","[3]; Expt. 3, 0.5 mmol/kg diet",78%
same,"Tumors, Avg. No. per Rat","[3]; Expt. 3, 0.5 mmol/kg diet",1.5
same,"Tumors, % of Control Gp.","[3]; Expt. 3, 1 mmol/kg diet",36%
same,"Tumors, Avg. No. per Rat","[3]; Expt. 3, 1 mmol/kg diet",0.7
same,"Tumors, % of Control Gp.","[3]; Expt. 3, 2 mmol/kg diet",36%
same,"Tumors, Avg. No. per Rat","[3]; Expt. 3, 2 mmol/kg diet",0.7
same,liver levels of RP compared with vehicle group,"[4]; after 14 days, gavage",only slightly higher than the levels of the vehicle group
same,change of serum concentration of RTMBE,"[4]; between 7 and 14 days, gavage",did not change significantly
same,increase of concentration in mammary gland,"[4]; between 7 and 14 days, gavage",more than two-fold
same,increase of liver level of RTMBE,"[4]; between 7 and 14 days, gavage",22%
same,concentration at 168 h,"[4]; liver, read-out: RTMBE, Liver",78900 ± 7500 ng/g
same,concentration at 336 h,"[4]; liver, read-out: RTMBE, Liver",96100 ± 11100 ng/g
same,concentration at 168 h,[4]; [6],83300 ± 7300 ng/g
same,concentration at 336 h,[4]; [6],178000 ± 11100 ng/g
same,concentration at 168 h,"[4]; serum, read-out: RTMBE, Serum",16300 ± 2500 ng/mL
same,concentration at 336 h,"[4]; serum, read-out: RTMBE, Serum",17300 ± 2200 ng/mL
same,"reduction of adenocarcinoma formation, compared with retinyl acetate",[5],somewhat more effectively than retinyl acetate
